The results in this text go back to patent US6656690B2, “Mass spectrometric methods for biomolecular screening” (priority 1998, dated 2003).

“Also recorded” adds a separate entry of the source.

The experiment deals with 27-mer RNA/DNA chimeric corresponding to the 16S rRNA A site. In words: ESI-MS and CID/CAD MS-MS protection assay on chimeric 27-mer RNA/DNA (ion trap). It counts as binding, prokaryotic. Here is the method:
In order to study the structure of the 27-mer RNA corresponding to the 16S rRNA A site, of sequence 5′-GGC-GUC-ACA-CCU-UCG-GGU-GAA-GUC-GCC-3′ (SEQ ID NO:1) a chimeric RNA/DNA molecule that incorporates three deoxyadenosine (dA) residues at positions 7, 20 and 21 was prepared using standard nucleic acid synthesis protocols on an automated synthesizer. This chimeric nucleic acid of sequence 5′-GGC-GUC-dACA-CCU-UCG-GGU-GdAdA-GUC-GCC-3′ (SEQ ID NO:2) was injected as a solution in water into an electrospray mass spectrometer. […] These fragments correspond to the w7^(2−), w8^(2−) and the a7-B^(2−) fragments respectively, that are formed by cleavage of the chimeric nucleic acid adjacent to each of the incorporated dA residues. […]
Next, another sample of the chimeric nucleic acid was treated with a solution of paromomycin and the resulting mixture analyzed by ESI followed by CID using a mass spectrometer. […]
1 mL (0.6 O.D.) of a solution of a 27-mer RNA containing 3 dA residues (from Example 1) was diluted into 500 μL of 1:1 isopropanol:water and adjusted to provide a solution that was 150 mM in ammonium acetate, pH 7.4 and wherein the RNA concentration was […]. […] This mixture was then subjected to ESI-MS and the ionization of the nucleic acid and its complex monitored in the mass spectrum. […]

On to `NC[C@@H]1O[C@H](O[C@H]2[C@@H](O)[C@H](O[C@@H]3[C@@H](O)[C@H](N)C[C@H](N)[C@H]3O[C@H]3O[C@H](CO)[C@@H](O)[C@H](O)[C@H]3N)O[C@@H]2CO)[C@H](N)[C@@H](O)[C@@H]1O` [paromomycin], for which the “fragmentation at dA sites of the complex under CID/CAD (protection of binding site)” value (same activation energy as free RNA) is on record as “no fragmentation at the dA sites; also recorded: No cleavage was found to occur; also recorded: No significant fragment ions; also recorded: No fragment ions are detected”. Further, the “complex formation / binding strength with chimeric 27-mer (in words)” value (target 10 mM as printed, paromomycin and library members ~150 nM) is “only a 1:1 complex”.
